Holding throughout (test): In vitro antibacterial activity (MIC), standard agar-dilution test
What all share (format): cell-based

Experiment [1] relates to P. aeruginosa ISM. The following applies: Pseudomonas aeruginosa, inoculum about 10⁴ CFU/ml, 18-24 h at 37°C.
For experiment [2], the system named is E. coli SKF 12140. The following applies: Escherichia coli, SKF12140, inoculum about 10⁴ CFU/ml, 18-24 h at 37°C.
The test system of experiment [3] is S. haemolyticus L 602. The following applies: Staphylococcus haemolyticus, L602, inoculum about 10⁴ CFU/ml, 18-24 h at 37°C. The method, then: (§1) Isosensitest broth (Oxoid) and Todd-Hewitt broth (Difco) are used for growing staphylococci and streptococci, respectively. Broth cultures are diluted so that the final inoculum is about 10⁴ colony forming units/ml (CFU/ml).

Experiment [4] concerns S. pneumoniae UC41. Particulars: Streptococcus pneumoniae, inoculum about 10⁴ CFU/ml, 18-24 h at 37°C. The procedure:
as §1

Experiment [5] deals with S. pyogenes C203. The following applies: Streptococcus pyogenes, inoculum about 10⁴ CFU/ml, 18-24 h at 37°C. The method, then:
as §1

For experiment [6], the system named is S. aureus Tour. The following applies: Staphylococcus aureus, inoculum about 10⁴ CFU/ml, 18-24 h at 37°C. The procedure:
as §1

Experiment [7] concerns S. epidermidis ATCC 12228. Particulars: Staphylococcus epidermidis, ATCC12228, inoculum about 10⁴ CFU/ml, 18-24 h at 37°C. The procedure: as §1
In experiment [8] the test system is S. faecalis ATCC 7080. Particulars: Enterococcus faecalis, ATCC7080, inoculum about 10⁴ CFU/ml, 18-24 h at 37°C. The method, then:
as §1

The subject of experiment [9] is P. vulgaris X19H ATCC 881. The following applies: Proteus vulgaris, ATCC881, inoculum about 10⁴ CFU/ml, 18-24 h at 37°C.
The mark [10] stands for this setting: S. aureus Tour + 30% bovine serum.

SMILES strings stand for the structures. In brackets after ≈: the same amount, converted by molar mass.

Here are results for two molecules from patent publication EP0351685A2, “Process for preparing n15-alkyl derivatives of teicoplanin compounds” (GRUPPO LEPETIT S.p.A., priority 1988, dated 1990).

On to `CCNC1C(=O)NC2Cc3ccc(c(Cl)c3)Oc3cc4cc(c3O)Oc3ccc(cc3Cl)C(O)C3NC(=O)C(NC(=O)C4NC(=O)C(NC2=O)c2cc(O)cc(c2)Oc2cc1ccc2O)c1ccc(O)c(c1)-c1c(O)cc(O)cc1C(C(=O)O)NC3=O` (stereo not shown) [Compound 9], for which the MIC in experiment [1] was more than 128 µg/mL; in experiment [2] it was more than 128 µg/mL; in [3], 0.25 µg/mL (≈ 0.204 µM); in experiment [4], 0.12 µg/mL (≈ 0.0978 µM); in experiment [5], 0.06 µg/mL (≈ 0.0489 µM); in [6] (setting [10]) it was 0.25 µg/mL. In addition, the MIC in experiment [6] (S. aureus Tour) was 0.06 µg/mL (≈ 0.0489 µM); in experiment [7], 0.03 µg/mL (≈ 0.0245 µM); in experiment [8], 0.12 µg/mL (≈ 0.0978 µM); in [9] it was more than 128 µg/mL.
Take `O=C1NC2C(=O)NC3C(=O)NC4C(=O)NC(C(=O)NC(C(=O)O)c5cc(O)cc(O)c5-c5cc4ccc5O)C(O)c4ccc(c(Cl)c4)Oc4cc3cc(c4O)Oc3ccc(cc3Cl)CC1NC(=O)C(NC1CCCC1)c1ccc(O)c(c1)Oc1cc(O)cc2c1` (stereo not shown) [Compound 11]: the MIC was more than 128 µg/mL in experiment [1]; more than 128 µg/mL in experiment [2]; 0.06 µg/mL (≈ 0.0474 µM) in [4]; 0.12 µg/mL (≈ 0.0947 µM) in [5]; 0.5 µg/mL in experiment [6] (setting [10]); 0.06 µg/mL (≈ 0.0474 µM) in experiment [6] (S. aureus Tour). Besides, the MIC was 0.03 µg/mL (≈ 0.0237 µM) in [7], 0.25 µg/mL (≈ 0.197 µM) in experiment [8] and more than 128 µg/mL in experiment [9].
